Results taken from ChEMBL document CHEMBL2413067, “Investigation into the functional impact of the vancomycin C-ring aryl chloride” (2013).
Converted amounts (≈) assume the structure as drawn.

Columns and labels:
[1] = Binding affinity to N,N'-Ac2-L-Lys-D-Ala-D-Ala model of cell wall ligand by UV-difference assay
[2] = test system: Staphylococcus aureus; test: Antimicrobial activity against vancomycin-sensitive Staphylococcus aureus ATCC 25923 after 24 hrs; type: functional; conditions: ATCC 25923, 24 h
[3] = Binding affinity to N,N'-Ac2-L-Lys-D-Ala-Gly model of cell wall ligand by UV-difference assay
[4] = Binding affinity to N,N'-Ac2-L-Lys-D-Ala-D-Phe model of cell wall ligand by UV-difference assay
[5] = Binding affinity to N,N'-Ac2-L-Lys-D-Ala-D-Ser model of cell wall ligand by UV-difference assay

Row | SMILES | Ka [1] | MIC [2] | Ka [3] | Ka [4] | Ka [5]
1 | CN[C@H](CC(C)C)C(=O)N[C@H]1C(=O)N[C@@H](CC(N)=O)C(=O)N[C@H]2C(=O)N[C@H]3C(=O)N[C@H](C(=O)N[C@H](C(=O)O)c4cc(O)cc(O)c4-c4cc3ccc4O)[C@H](O)c3ccc(cc3)Oc3cc2cc(c3O)Oc2ccc(cc2)[C@H]1O | 0.18 ×10⁵ /M | 20 µg/mL (≈ 18.6 µM) | – | – | –
2 | CN[C@H](CC(C)C)C(=O)N[C@H]1C(=O)N[C@@H](CC(N)=O)C(=O)N[C@H]2C(=O)N[C@H]3C(=O)N[C@H](C(=O)N[C@H](C(=O)O)c4cc(O)cc(O)c4-c4cc3ccc4O)[C@H](O)c3ccc(cc3)Oc3cc2cc(c3O)Oc2ccc(cc2Cl)[C@H]1O | 0.38 ×10⁵ /M | 10 µg/mL (≈ 9.01 µM) | 0.49 ×10⁴ /M | 9 ×10² /M | 4 ×10³ /M
3 | CN[C@H](CC(C)C)C(=O)N[C@H]1C(=O)N[C@@H](CC(N)=O)C(=O)N[C@H]2C(=O)N[C@H]3C(=O)N[C@H](C(=O)N[C@H](C(=O)O)c4cc(O)cc(O)c4-c4cc3ccc4O)[C@H](O)c3ccc(c(Cl)c3)Oc3cc2cc(c3O)Oc2ccc(cc2Cl)[C@H]1O [VANCOMYCIN AGLYCON] | 1.4 ×10⁵ /M | 1.25 µg/mL (≈ 1.09 µM) | 1 ×10⁴ /M | 9.1 ×10² /M | 3.3 ×10³ /M
4 | CN[C@H](CC(C)C)C(=O)N[C@H]1C(=O)N[C@@H](CC(N)=O)C(=O)N[C@H]2C(=O)N[C@H]3C(=O)N[C@H](C(=O)N[C@H](C(=O)O)c4cc(O)cc(O)c4-c4cc3ccc4O)[C@H](O)c3ccc(c(Cl)c3)Oc3cc2cc(c3O[C@@H]2O[C@H](CO)[C@@H](O)[C@H](O)[C@H]2O[C@H]2C[C@](C)(N)[C@H](O)[C@H](C)O2)Oc2ccc(cc2Cl)[C@H]1O [VANCOMYCIN] | 1.8 ×10⁵ /M | 1.25 µg/mL (≈ 0.863 µM) | – | – | –
